Measured values as given in PubChem BioAssay AID328 (DTP/NCI, 2004).
Several values for one entry are separate records, joined by “and”; a condition that tells them apart may be missing. Equal entries are not always repeated. Inconclusive results and toxic doses are left out.

System: BDF1 mice, P388 leukemia ip, median survival T/C
Assay: NCI In Vivo Anticancer Drug Screen. Data for tumor model P388 Leukemia (intraperitoneal) in B6D2F1 (BDF1) mice
Settings: endpoint: median survival time, higher = longer survival
Procedure, shortened: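 Transplantable tumour in mice; compound vs vehicle dosing; survival scored; ratio of treated to control reported.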

[1] = dose: 200.0 mg/kg/injection, schedule: Q01DX009 (ip), vehicle: saline
[2] = dose: 100.0 mg/kg/injection, schedule: Q01DX009 (ip), vehicle: saline

## CC(C)(CBr)C(=O)N1CCN(C(=O)C(C)(C)CBr)CC1
dose: 20.0 mg/kg/injection, schedule: Q04DX003 (ip), vehicle: Klucel (hydroxypropylcellulose) (HPC)
  T/C: 150 % of control
dose: 30.0 mg/kg/injection, schedule: Q04DX003 (ip), vehicle: Klucel (hydroxypropylcellulose) (HPC)
  T/C: 159 % of control and 163 % of control
dose: 44.0 mg/kg/injection, schedule: Q04DX003 (ip), vehicle: Klucel (hydroxypropylcellulose) (HPC)
  T/C: 163 % of control and 165 % of control
dose: 100.0 mg/kg/injection, schedule: Q04DX003 (ip), vehicle: Klucel (hydroxypropylcellulose) (HPC)
  T/C: 195 % of control and 200 % of control
dose: 150.0 mg/kg/injection, schedule: Q04DX003 (ip), vehicle: Klucel (hydroxypropylcellulose) (HPC)
  T/C: 175 % of control

## Cc1ccc(OCC(O)CN2CCN(c3ccc(Cl)cc3)CC2)cc1 (stereo unspecified)
dose: 100.0 mg/kg/injection, schedule: Q04DX003 (ip), vehicle: saline sonified
  T/C: 100 % of control
dose: 200.0 mg/kg/injection, schedule: Q04DX003 (ip), vehicle: saline sonified
  T/C: 100 % of control
dose: 400.0 mg/kg/injection, schedule: Q04DX003 (ip), vehicle: saline sonified
  T/C: 100 % of control

## C/C=C(\C)C(=O)O[C@@H]1c2cc3c(cc2-c2c(cc(OC)c(OC)c2OC)[C@@H]2C(=O)OC[C@@H]12)OCO3
dose: 1.0 mg/kg/injection, schedule: Q01DX009 (ip), vehicle: saline + alcohol
  T/C: 100 % of control
dose: 1.3 mg/kg/injection, schedule: Q01DX009 (ip), vehicle: saline
  T/C: 90 % of control
dose: 2.0 mg/kg/injection, schedule: Q01DX009 (ip), vehicle: saline + alcohol
  T/C: 100 % of control
dose: 2.0 mg/kg/injection, schedule: Q01DX009 (ip), vehicle: saline
  T/C: 100 % of control
dose: 3.0 mg/kg/injection, schedule: Q01DX009 (ip), vehicle: saline
  T/C: 100 % of control
dose: 4.0 mg/kg/injection, schedule: Q01DX009 (ip), vehicle: saline + alcohol
  T/C: 109 % of control
dose: 5.3 mg/kg/injection, schedule: Q01DX009 (ip), vehicle: saline with Tween-80
  T/C: 110 % of control
dose: 7.11 mg/kg/injection, schedule: Q01DX009 (ip), vehicle: saline + alcohol
  T/C: 158 % of control
dose: 8.0 mg/kg/injection, schedule: Q01DX009 (ip), vehicle: saline + alcohol
  T/C: 118 % of control
dose: 8.0 mg/kg/injection, schedule: Q01DX009 (ip), vehicle: saline with Tween-80
  T/C: 110 % of control
dose: 10.66 mg/kg/injection, schedule: Q01DX009 (ip), vehicle: saline + alcohol
  T/C: 95 % of control
dose: 12.0 mg/kg/injection, schedule: Q01DX009 (ip), vehicle: saline with Tween-80
  T/C: 110 % of control
dose: 16.0 mg/kg/injection, schedule: Q01DX009 (ip), vehicle: saline + alcohol
  T/C: 91 % of control
dose: 21.4 mg/kg/injection, schedule: Q01DX009 (ip), vehicle: saline
  T/C: 110 % of control
dose: 24.0 mg/kg/injection, schedule: Q01DX009 (ip), vehicle: saline + alcohol
  T/C: 100 % of control
dose: 32.0 mg/kg/injection, schedule: Q01DX009 (ip), vehicle: saline
  T/C: 115 % of control
dose: 48.0 mg/kg/injection, schedule: Q01DX009 (ip), vehicle: saline
  T/C: 100 % of control and 120 % of control
dose: 72.0 mg/kg/injection, schedule: Q01DX009 (ip), vehicle: saline
  T/C: 113 % of control
dose: 88.0 mg/kg/injection, schedule: Q01DX009 (ip), vehicle: saline
  T/C: 95 % of control
dose: 108.0 mg/kg/injection, schedule: Q01DX009 (ip), vehicle: saline
  T/C: 95 % of control
dose: 133.0 mg/kg/injection, schedule: Q01DX009 (ip), vehicle: saline
  T/C: 100 % of control
[1]
  T/C: 90 % of control

## CC/C(=N\NS(=O)(=O)c1ccc(C)cc1)c1ccc(OC)c(OC)c1
dose: 50.0 mg/kg/injection, schedule: Q01DX009 (ip), vehicle: saline
  T/C: 96 % of control
[2]
  T/C: 96 % of control
[1]
  T/C: 92 % of control

## COCC(O)CC#N (stereo unspecified)
[2]
  T/C: 100 % of control
dose: 100.0 mg/kg/injection, schedule: Q04DX003 (ip), vehicle: saline
  T/C: 95 % of control
[1]
  T/C: 87 % of control
dose: 200.0 mg/kg/injection, schedule: Q04DX003 (ip), vehicle: saline
  T/C: 95 % of control
dose: 400.0 mg/kg/injection, schedule: Q01DX009 (ip), vehicle: saline
  T/C: 95 % of control
dose: 400.0 mg/kg/injection, schedule: Q04DX003 (ip), vehicle: saline
  T/C: 100 % of control

## C=C(C)C1CCC2=CC(CC3(C)OC3C3=CC(C(=O)OC)=C(C1)O3)OC2=O (stereo unspecified)
dose: 50.0 mg/kg/injection, schedule: Q01DX009 (ip), vehicle: Klucel (hydroxypropylcellulose) (HPC)
  T/C: 86 % of control

## S=c1sc(-c2ccccc2)c[se]1
dose: 25.0 mg/kg/injection, schedule: Q01DX009 (ip), vehicle: saline + Tween-80 + alcohol
  T/C: 107 % of control
dose: 50.0 mg/kg/injection, schedule: Q01DX009 (ip), vehicle: saline + Tween-80 + alcohol
  T/C: 105 % of control

## CSc1cc(-c2ccc(Cl)cc2)s[s+]1
dose: 3.12 mg/kg/injection, schedule: Q04DX003 (ip), vehicle: saline with Tween-80
  T/C: 104 % of control
dose: 6.25 mg/kg/injection, schedule: Q01DX009 (ip), vehicle: saline with Tween-80
  T/C: 110 % of control
dose: 6.25 mg/kg/injection, schedule: Q04DX003 (ip), vehicle: saline with Tween-80
  T/C: 111 % of control
dose: 12.5 mg/kg/injection, schedule: Q01DX009 (ip), vehicle: saline with Tween-80
  T/C: 89 % of control
dose: 12.5 mg/kg/injection, schedule: Q04DX003 (ip), vehicle: saline with Tween-80
  T/C: 109 % of control
dose: 25.0 mg/kg/injection, schedule: Q01DX009 (ip), vehicle: saline with Tween-80
  T/C: 100 % of control
dose: 25.0 mg/kg/injection, schedule: Q04DX003 (ip), vehicle: saline with Tween-80
  T/C: 108 % of control
dose: 50.0 mg/kg/injection, schedule: Q01DX009 (ip), vehicle: saline with Tween-80
  T/C: 91 % of control
dose: 50.0 mg/kg/injection, schedule: Q04DX003 (ip), vehicle: saline with Tween-80
  T/C: 94 % of control
